Measurements taken from patent publication US20200392116A1, “SUBSTITUTED HETEROCYCLES AS c-MYC TARGETING AGENTS” (NORTHWESTERN UNIVERSITY, priority 2019, published 2020).
Read-outs that look alike come from different tables or passages of the source.

Legend:
DNA damage (rH2AX) = assay: rH2AX staining assay for DNA damage; type: cell-based
Experimental: Min9 (NUCC-0176234) was also tested for its ability to cause DNA damage in an rH2AX staining assay. We would not expect cMYC-targeting agents to produce significant DNA damage. Compounds that act directly against DNA such as doxorubicin do however. […] (See FIG. 6).

[1] = system: cMYC wild-type (WT) and cMYC KO line; assay: Cell viability assay, cMYC wild-type line versus cMYC KO line; type: cell-based
Experimental: Min9 (NUCC-0176234) was also tested in a cell viability assay against a cMYC wild-type (WT) and a cMYC KO line.

[2] = Potency code of Table 2 (assay not stated)
MYC/Max binding to DNA = MYC/Max binding to DNA (Homo sapiens, UniProt P01106); assay: Electrophoretic mobility shift assay (EMSA) of MYC/Max binding to DNA
Experimental: We also tested our best hit compound Min9 (NUCC-0176234) and newly synthesized analogs for effects of these compounds on MYC/Max binding to DNA in electrophoretic mobility shift assays (EMSAs). (See FIG. 5a and FIG. 5b). We expected the active compounds to impair MYC/Max binding to DNA. Several structural analogs of Min9 were tested over multiple doses for inhibiting MYC-DNA binding and we observed a dose-dependent inhibition. (See FIG. 5c).

[3] = Pharmacokinetics in mice after IV dosing; type: in vivo; details: 5 mg/kg intravenously
Experimental: The pharmacokinetics of NUCC-176242 and NUCC-176248 were studied in mice by administering a dose of 5 mg/kg intravenously and measuring the plasma concentration versus time. (See FIG. 10).
The pharmacokinetics of NUCC-176242 and NUCC-176248 were studied in mice by administering a dose of 5 mg/kg intravenously and measuring the plasma concentration versus time.

[4] = In vitro metabolism with mouse S9 fraction; type: in vitro ADME
Experimental: In vitro metabolism of NUCC-176242 and NUCC-176248 were tested using mouse liver microsomes and a mouse S9 fraction. (See FIG. 9).
In vitro metabolism of NUCC-176242 and NUCC-176248 were tested using mouse liver microsomes and a mouse S9 fraction.

[5] = system: MYC WT and MYC KO rat fibroblasts; assay: Growth inhibition of wild type and MYC knockout rat fibroblasts; type: cell-based
Text: We tested the top 13 active compounds in the first screen assay. […] More than half of the tested compounds show better growth inhibitory effect on MYC WT compared to MYC KO cells.

PC12 cells = assay: Cell viability / proliferation of PC12 cells (MTS); type: cell-based
Experimental: (§1) PC3 prostate cancer cell line with high Myc level and PC12 pheochromocytoma tumor cell line with non functional Max protein, which is not dependent on Myc-Max complex, were phased from ATCC. Cells were plated in 96 well plate at 1000 cells per well, and Myc inhibitor 361 at various concentrations was added to the cells next day. After 3 days of treatment, fresh medium with 361 were added again, and cell viability was measured by MTS assay at day 5 after the treatment. (See FIG. 11).

MycCap cells = assay: Cell viability of MycCap cells; type: cell-based
MycCap tumor [6] = assay: MycCap FVB allograft model, combination with anti-PD-1 immunotherapy; type: in vivo, FVB mice; details: combination with anti-PD-1 antibody
Experimental: MycCap FVB allograft model was treated with 361 (50 mg/kg) for two days, following by two days of anti-PD-1 antibody (100 ug/day), and kept this 4-day treatment cycle for 4 cycles. (See FIG. 16).

[7] = system: MYC transcriptional activity (c-Myc E-box-luciferase reporter, MycCap cells); assay: MYC E-box luciferase reporter assay; type: cell-based; details: 4 hours of treatment
Method in brief: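 MycCap cells stably carrying c-Myc E-box-luciferase reporter, with CMV-luciferase MycCap-luc as counterpart, seeded 10000 cells/well and treated next day with serial compound dilutions. Luminescence read at 4 h immediately after adding 150 μg/ml luciferin.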

MycCap tumor [8] = assay: MycCap FVB allograft model; type: in vivo, FVB mice; details: mouse prostate cancer allograft, intra-peritoneally
Experimental: FVB mice were inoculated with 1×10^6 of MycCap cells in 100 ul of matrigel subcutaneously on both flanks of the mice. When tumor size reached average size of 150 mm^3, mice were randomized based on tumor volume to 2 groups. Mice were administered with 50 mg/kg of 361 or vehicle(Veh) twice daily intra-peritoneally for two days. The treatment was suspended for 10 day, and initiated the treatment with a lower dose […] daily for another 9 days. Tumor size was measured twice a week during the experiment. (See FIG. 15).

[9] = system: PC3 prostate cancer cell line; assay: Proliferation assay of PC3 cells (MTS); type: cell-based; details: Myc dependent cell line
Experimental: as §1

MV411 cells xenograft = assay: AML xenograft model, combination with Ara-C; type: in vivo, CB17 SCID mice; details: AML mice xenograft
Experimental: CB17 SCID mice were inoculated with MV411 cells at the density of 5×10^6 suspended in PBS and matrigel (1:1). The mice were randomized based on tumor volume into 6 different groups after the tumor reached ˜200 to 500 mm^3. The mice were treated either with vehicle, NU031, NU975 alone or in combination with cytarabine (Ara-C). […] (See FIG. 17).

Chain of MYC/Max binding to DNA (P01106 whole entry): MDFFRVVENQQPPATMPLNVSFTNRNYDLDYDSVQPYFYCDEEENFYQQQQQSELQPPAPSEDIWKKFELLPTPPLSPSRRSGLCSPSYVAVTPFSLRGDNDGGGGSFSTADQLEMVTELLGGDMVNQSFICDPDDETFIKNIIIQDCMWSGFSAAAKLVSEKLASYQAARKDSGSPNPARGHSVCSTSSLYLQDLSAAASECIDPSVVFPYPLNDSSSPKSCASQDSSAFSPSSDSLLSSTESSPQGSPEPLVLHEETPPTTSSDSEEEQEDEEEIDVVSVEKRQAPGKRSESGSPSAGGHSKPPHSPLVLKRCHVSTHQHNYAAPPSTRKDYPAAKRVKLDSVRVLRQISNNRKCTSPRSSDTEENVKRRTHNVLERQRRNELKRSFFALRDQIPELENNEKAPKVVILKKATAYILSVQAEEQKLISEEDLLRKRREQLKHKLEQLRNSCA

For CCc1ccc(Oc2c[nH]nc2-c2ccc(OCc3cnn(-c4ccccc4)c3)cc2O)cc1 [NUCC-0176234], which DNA damage (DNA damage (rH2AX)) is on record?
The DNA damage was “essentially no DNA damage”.

And the “cell viability, WT line versus KO cells” value [1]?
The value was “reduces cell viability much more in the WT line than the KO cells”.

What about the Potency code [2] of the same compound?
Its Potency code is “+ (>40 +)”.

And the “inhibition of MYC/Max (c-MYC) binding to DNA” value (MYC/Max binding to DNA; in words)?
The value was “prevent c-MYC/DNA binding”.

Which “in vivo metabolism (plasma concentration versus time)” value [3] does the source give for CCc1ccc(Oc2c(-c3ccc(OCc4ccc(Cl)cc4)cc3O)n[nH]c2C(F)(F)F)cc1 [NUCC-0176242] here?
The value was “correlated well with the observed in vitro metabolism”.

What about the Potency code [2] of the same compound?
Its Potency code is “++ (30-40 ++)”.

And the “metabolism by mouse S9 fraction” value [4]?
The value was “significantly metabolism by the mouse S9 fraction versus NUCC-176248”.

Which “in vivo metabolism (plasma concentration versus time)” value [3] does the source give for CCc1ccc(Oc2c(-c3ccc(OCc4ccc(Cl)cc4)cc3O)nn(C)c2C(F)(F)F)cc1 [NUCC-0176248] here?
The value was “correlated well with the observed in vitro metabolism”.

And the Potency code [2]?
The Potency code was “+ (>40 +)”.

What about the “selectivity of growth inhibition, MYC WT versus MYC KO” value [5] of the same compound?
Its value is “high specificity”.

Which results are given for CCc1ccc(Oc2c(-c3ccc(OCc4ccncc4)cc3O)n[nH]c2C(F)(F)F)cc1 [NUCC-0176250]?
Potency code [2]: + (>40 +); selectivity of growth inhibition, MYC WT versus MYC KO [5]: great selectivity

Which Potency code [2] does the source give for CCc1ccc(Oc2c(-c3ccc(OCc4cccc(Cl)c4)cc3O)n[nH]c2C(F)(F)F)cc1 [NUCC-0196295] here?
Its Potency code is “+++ (10-30 +++)”.

And the IC50 (MYC/Max binding to DNA)?
Its IC50 is 66.8 µM.

For CC(C)CCOc1ccc(-c2cc(C(F)(F)F)n[nH]2)c(O)c1-c1cc(C(F)(F)F)cc(C(F)(F)F)c1 [NUCC-0201198], which Potency code [2] is on record?
Its Potency code is “+++ (10-30 +++)”.

What about the IC50 (PC12 cells; Rattus norvegicus, PC-12) of the same compound?
Its IC50 is 8.2 µM.

What about the IC50 (MycCap cells; Mus musculus, Myc-CaP) of the same compound?
Its IC50 is 2.6 µM.

Which Potency code [2] does the source give for O=C1CCC(N2C(=O)c3cccc(OCc4cn(CCOCCOCCOCC(=O)Nc5ccc(COc6ccc(-c7cc(C(F)(F)F)n[nH]7)c(O)c6-c6cc(C(F)(F)F)cc(C(F)(F)F)c6)cc5)nn4)c3C2=O)C(=O)N1 (stereo not drawn) [NUCC-0201202] here?
The Potency code was “+++ (10-30 +++)”.

What about the IC50 (PC12 cells) of the same compound?
Its IC50 is 23.1 µM.

What about the IC50 (MycCap cells) of the same compound?
Its IC50 is 4 µM.

Which Potency code [2] does the source give for O=C1CCC(N2C(=O)c3cccc(OCc4cn(CCOCCOCCOCCOCC(=O)Nc5ccc(COc6ccc(-c7cc(C(F)(F)F)n[nH]7)c(O)c6-c6cc(C(F)(F)F)cc(C(F)(F)F)c6)cc5)nn4)c3C2=O)C(=O)N1 (stereo not drawn) [NUCC-0201203] here?
Its Potency code is “++ (30-40 ++)”.

And the IC50 (MycCap cells)?
Its IC50 is 32.4 µM.

Which tumor progression (MycCap tumor [6]) does the source give for Cn1nc(C(F)(F)F)cc1-c1ccc(OCc2ccc(Cl)cc2)c(-c2cc(C(F)(F)F)cc(C(F)(F)F)c2)c1O [compound 361] here?
Its tumor progression is “significantly blocks tumor progression”.

And the c-Myc transcription activity [7]?
The c-Myc transcription activity was “inhibits c-Myc transcription activity as an early event before affecting cell viability”.

What about the tumor volume (MycCap tumor [8]) of the same compound?
Its tumor volume is “reduces tumor volume”.

And the “proliferation of PC3” value [9]?
The value was “specifically inhibits proliferation”.

With Cn1nc(C(F)(F)F)cc1-c1ccc(OCc2ccc(Cl)cc2)c(-c2ccc(Cl)c(C(F)(F)F)c2)c1O [compound 975] as the compound, how does the “anti-tumor effect in combination with Ara-C” value (MV411 cells xenograft) read?
Its value is “significant synergic anti-tumor effect”.
